The results in this text go back to patent EP0528615A1, “Cribrostatins 1 and 2” (ARIZONA BOARD OF REGENTS, priority 1991, dated 1993).

Series [1] concerns melanoma cancer line (LOX-1MCI; MALME-3M; M14; M19-MEL; SK-MEL-2; KS-MEL-28; SK-MEL-5; UACC_257; UACC-62). It counts as cell-based, human. From the text: (§1) Presently the Cribrochalina sp. constituents are undergoing detailed antineoplastic evaluation. […] (See: Boyd, status of the NCI preclinical antitumor drug discovery screen: implications for selection of new agents for clinical trial. In: DeVita et al., Principles and Practices of Oncology, update series, Vol. 3, No. 10, Lippincott, Philadelphia 1989, pp1-12; and Boyd et al., Data display and analysis strategies from NCI disease oriented in vitro antitumor drug screen. In:Valeriote et al., Antitumor Drug Discovery and Development, Kluwer Academic Press, Amsterdam, 1990.) The human tumor cell line panel currently used for these studies consists of a diverse array of 60 different cell lines representing eight major cancer subtypes.

Series [2] deals with non-small lung cancer (A549/ATCC, HOP-18, and NCI-H460). Nature of the series: NCI panel cell lines, non-small lung cancer. It counts as cell-based, human. To be noted: non-small lung cancer (A549/ATCC, HOP-18, NCI-H460).
Text: as §1

The subject of series [3] is NCI human cancer cell lines. The experiment in a line: NCI human cancer cell lines, cytostatic activity (general statement). It counts as cell-based.
Text: as §1

For a further series, the system named is colon cancer (CoLo 205). The experiment in a line: NCI panel cell lines, colon cancer. It counts as cell-based, human.
Text: as §1

Series [4] deals with P388 murine lymphocytic leukemia. The experiment in a line: in vitro PS leukemia cell growth inhibition (NCI P388 protocol). It counts as cell-based. To be noted: Mus musculus, isolated pure compounds, read-out: PS ED₅₀. From the text: In early research devoted to the first systematic investigation of marine animals as new sources of potential anticancer drugs the phylum Porifera rapidly became of increasing importance. Subsequent detection of antineoplastic activity in some of these sponge species led to the isolation of such cell growth inhibitory compounds, as macrocyclic lactones, pyrroles, peptides, and proteins. Meanwhile the isolation of heterocyclic marine sponge constituents such as pyrroles, imidazoles, oxazoles, indoles, pyridines, quinolizidines, pteridines, acridines, other nitrogen systems and quinones has been rapidly accelerating. So far ten isoquinolinequinones have been isolated from blue species of the sponge genera Reniera and Xestospongia. In 1986 an exploratory survey of marine Porifera off remote islands in the Republic of the Maldives was conducted which located a deep blue colored specimen of Cribrochalina sp. (Haplosclerida order) that afforded an orange ethanol extract. The encrusting sponge was found in areas of strong (and dangerous) currents to -45m in the South side of East reef passages and yielded and ethanol extract that provided 40% life extension (at mg/kg) against the U.S. National Cancer Institute's in vivo murine P388 lymphocytic leukemia (PS system). […]

Molecules are shown by their SMILES. Converted amounts (≈) assume the structure as drawn.

As to `CC1=C(N)C(=O)c2c(ccnc2C)C1=O` [Cribrostatin 1], in series [1], the LC₅₀ was 10⁻⁵ - 10⁻⁶. Moreover, the “sensitivity relative to panel mean” value in series [1] (all nine melanoma lines of the 60 cell line panel) is listed as “sensitivity greater than the panel mean”. For the same compound, the “result in NCI panel cell line” value is on record as “especially favorable results” in series [1] (melanoma (MALME-3M, M14, M19-MEL, SK-MEL-2, SK-MEL-28, UACC-257, UACC-62)); “especially favorable results” in series [2]; “especially favorable results” with colon cancer (CoLo 205). In addition, in series [3], the cytostatic properties entry is listed as “cytostatic properties”. Further, in series [4], the IC50 turned out to be 1.58 µg/mL (≈ 7.81 µM).

Consider `CCOC1=C(C)C(=O)c2cc(=O)n(C)cc2C1=O` [Cribrostatin 2], for which the cytostatic properties entry in series [3] is on record as “cytostatic properties”. In series [4], the IC50 is 2.73 µg/mL (≈ 11 µM).
